Measured values: patent US8889662B2, “Method to alter sex ratios in avian offspring” (University of Georgia Research Foundation, Inc., priority 2009, dated 2014)

Assays:
[1] = system: zebra finch (Taeniopygia guttata); experiment: Example 2: disruption of ovulation, oviposition and embryo development after injection, zebra finches; format: in vivo; conditions: 20 ug injection
Description: Zebra finch (Taeniopygia guttata) pairs obtained from a breeding colony maintained at The University of Georgia were housed in individual cages and provided feed and water ad libidumn. Birds were kept under a 14 hour (h) light (L):10 h dark (D) light schedule. Egg-laying was monitored daily and eggs marked to record sequence order. Females were injected intraperitoneally after the first or second egg of the clutch was laid with one of three treatments: 20 μg of CORT dissolved in 50 μl peanut oil and 10% ethanol (CORT), 20 μg of progesterone dissolved in […] and 10% ethanol (P), or 50 μl of control peanut oil (C). A fourth set of females received no injection treatment (UN). […] The follicle ovulating 5 hours after injection, was laid approximately 36 hours after injection (FIG. 3). Ovulating follicles exposed to treatments were laid as the 3rd or 4th egg in the sequence (3rd egg if treatment was administered on the day the 1st egg was laid and the 4th egg in the sequence if treatment was administered on the day the 2nd egg was laid). Eggs were allowed to incubate in the nest for 8-12 days prior to collection to allow sufficient embryonic development for DNA extraction and molecular sexing analyses. Occasionally these treatments disrupted the oviposition immediately following the injection. Females that delayed oviposition after treatment were excluded from analysis because it was not possible to determine whether the egg collected the following day was from the ovulation event that occurred immediately following injection or from a delayed oviposition of the follicle ovulated the day prior to injection. Females that delayed oviposition were allowed to complete the clutch after which the treatment was repeated during the next clutch. […] Only 1/10 females treated with progesterone laid successfully. For this reason, progesterone treatments were eliminated from further analyses.

female chickens = conditions: at the time of meiotic segregation, Correa et al. 2005; cited from earlier work
[2] = system: zebra finches and pigeons; conditions: literature; cited from earlier work

Structure (SMILES)	eggs with delayed oviposition [1] [eggs]	eggs with no visible development [1] [eggs]	females in which ovulation and oviposition were disrupted [1] [%]	females that laid successfully ([1]; number of treated females)	sex ratio after acute progesterone treatment (female chickens)	sex ratio after testosterone treatment [2]
CC(=O)[C@H]1CC[C@H]2[C@@H]3CCC4=CC(=O)CC[C@]4(C)[C@H]3CC[C@]12C [progesterone]	5	4	90	1/10	induced a sex ratio skew towards females	–
C[C@]12CC[C@H]3[C@@H](CCC4=CC(=O)CC[C@@]43C)[C@@H]1CC[C@@H]2O [testosterone]	–	–	–	–	–	induced a skew towards males
